Source: BindingDB's records for patent US9040518 (Glaxosmithkline, 2015)

Target: T1, Ileal sodium/bile acid cotransporter (Homo sapiens, UniProt Q12908)
T1 sequence (Q12908 whole entry): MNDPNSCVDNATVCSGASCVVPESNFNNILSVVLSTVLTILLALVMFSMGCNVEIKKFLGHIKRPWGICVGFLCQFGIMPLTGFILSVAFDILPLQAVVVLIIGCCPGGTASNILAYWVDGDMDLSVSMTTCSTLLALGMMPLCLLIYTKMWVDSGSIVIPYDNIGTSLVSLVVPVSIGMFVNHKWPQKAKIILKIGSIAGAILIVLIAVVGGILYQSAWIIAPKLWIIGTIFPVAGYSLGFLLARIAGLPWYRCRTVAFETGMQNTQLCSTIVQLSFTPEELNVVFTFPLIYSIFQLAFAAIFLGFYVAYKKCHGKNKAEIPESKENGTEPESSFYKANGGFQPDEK
Test: Inhibition Assay
Conditions: 25 °C
Procedure: On the day of the uptake experiment, 10 mM HEPES was added to Hank's Balanced Salt Solution, and the pH was adjusted to 7.4 with TRIS (HBSSH). The assay buffer was prepared by adding 100 uM [3H]-taurocholate and 10 uM cold taurocholate to room temperature HBSSH. A separate washing buffer was prepared by adding 10 uM cold taurocholate to HBSSH (30 ml per assay plate) and placed on ice. Using 100% DMSO, 8 point, 3-fold dilution curves for each test compound was prepared starting at 200 uM. […] Drug plates were created by adding 3 uL of each concentration to a v-bottom 96-well plate then diluted 60-fold with 177 uL of assay buffer. Plates were removed from the incubator and allowed to cool to ambient temperature.

Compound	IC50
CCCC[C@]1(CC)CS(=O)(=O)c2cc(CCCC(N)=O)c(OC)cc2[C@@H](c2ccccc2)N1 [US9040518, 24]	0.073 µM
CCCC[C@]1(CC)CS(=O)(=O)c2cc(CN3CCC[C@H]3C(=O)O)c(OC)cc2[C@@H](c2ccccc2)N1 [US9040518, 63]	8.99 µM
